These results are taken from patent publication US20230276804A1, “A PESTICIDALLY ACTIVE MIXTURE COMPRISING PYRAZOLOPYRIDINE ANTHRANILAMIDE COMPOUND, OXIDES OR SALTS THEREOF” (priority 2020, published 2023).

Type in all cases: in vivo
In one test the test system is Plutella xylostella. Briefly: Leaf dip method (cabbage leaves) against Plutella xylostella (Example C). The settings on record: single compound, 72 h. As to the method: The leaf dip method was used, wherein the required quantity of the compound or respective compound combinations were weighed and dissolved in a test solution prepared in tubes. The tubes were put on a vortex at 2000 rpm for 90 min for proper mixing and then the test solutions were diluted with 0.01% Triton-X to the desired test concentration. Cabbage leaves were dipped into the solution for 10 seconds, shade dried for 20 min and then transferred to single cells of bioassay trays. A single second instar larva was released into each cell and the tray was covered with a lid. The bio-assay trays were kept under laboratory conditions at a temperature of 25° C. and relative humidity of 70%. Observations on dead, moribund and live larvae were recorded 72 h after the release. Percent mortality was calculated by combining dead and moribund larvae and comparing the result with the one of the untreated control. The results are shown for compound of formula (I-III) in Table C.

A further test has as its system Helicoverpa armigera. Briefly: Diet incorporation method against Helicoverpa armigera (Example A). The settings on record: single compound, 96 h. Here is the method: The diet incorporation method was used, in which semi-synthetic diet was incorporated into the test solutions consisting either of the single compounds or respective compound combinations, when the temperature was approximately 50° C. in the bio-assay containers, then stirred thoroughly for proper mixing and allowed to cool for 30 min. The solidified diet was cut into equal pieces, and then each piece was transferred into one cell of a bio-assay tray. A single starved third instar larva was released into each of these cells of the bio-assay trays and the tray was covered with a lid. The bio-assay trays were kept under laboratory conditions at a temperature of 25° C. and relative humidity of 70%. Observations on dead, moribund and live larvae were recorded 96 h after the release of the larvae. Percent mortality was calculated by combining dead and moribund larvae and comparing the result to the one of the untreated control. The results are shown for the compound of formula (I-III) in Table A.

For a further test, the system named is Spodoptera litura. Briefly: Diet incorporation method against Spodoptera litura (Example B). The settings on record: single compound, 96 h. Here is the method:
The diet incorporation method was used, in which semi-synthetic diet was incorporated into the test solution consisting either of the single compound or respective compound combinations, when the temperature was approximately 50° C. in the bioassay containers, then stirred thoroughly for proper mixing and allowed to cool for 30 min. The solidified diet was cut into equal pieces, and then each piece was transferred into one cell of the bio-assay trays. A single starved third instar larva was released into each of these cells of the bio-assay trays and the tray was covered with a lid. The bio-assay trays were kept under laboratory conditions at a temperature of 25° C. and relative humidity of 70%. Observations on dead, moribund and live larvae were recorded 96 h after the release. Percent mortality was calculated by combining dead and moribund larvae and comparing the result with the one of the untreated control. The results are shown for the compound of formula (I-III) in Table B.

Another test has as its system Alternaria solani. Briefly: Preventive glasshouse test against Alternaria solani in tomato (Example G). The settings on record: single compound. Here is the method: The single compounds or respective compound combinations were dissolved in 2% dimethyl sulfoxide/acetone and then mixed with water containing emulsifier to a calibrated spray volume of 50 mL. The test solutions were poured into spray bottles for further applications.
To test the preventive activity, healthy young tomato plants, raised in the greenhouse, were sprayed with the active compound preparation at the stated application rates inside the spray cabinets using hollow cone nozzles. One day after treatment, the plants were inoculated with a spore suspension containing 0.24×10^6 Alternaria solani inoculum and 2% Malt. The inoculated plants were then kept in a greenhouse chamber at a temperature of 22-24° C. and 90-95% relative humidity for disease expression.
A visual assessment of the performance of the single compounds or compound combinations was carried out by rating the disease severity (0-100% scale) on treated plants 3, 7, 10 and 15 days after application. Efficacy (% control) of the single compounds and mixtures was calculated by comparing the disease rating in the treatment with the one of the untreated control. The compounds were also assessed for their plant compatibility by recording symptoms like necrosis, chlorosis and stunting. The results have been described for the compound of formula (I-III) in Table G.

The next test has as its system Erysiphe cichoracearum. Briefly: Preventive glasshouse test against Erysiphe cichoracearum in cucumber (Example K). To be noted: single compound, Conc. 100 ppm. As to the method:
The single compounds or the respective compound combinations were dissolved in 2% dimethyl sulfoxide/acetone and then mixed with water containing emulsifier to a calibrated spray volume of 50 mL. The test solutions were poured into spray bottles for further applications.
To test the preventive activity of compounds, healthy young cucumber plants, raised in the greenhouse, were sprayed with the active compound preparation at the stated application rates inside the spray cabinets using hollow cone nozzles. One day after treatment, the plants were inoculated with a conidial suspension containing 2×10^5 Erysiphe cichoracearum inoculum. The inoculated plants were then kept in a greenhouse chamber at a temperature of 22-24° C. and 50-60% relative humidity for disease expression.
A visual assessment of the performance of the compounds and the respective compound combinations was carried out by rating the disease severity (0-100% scale) on treated plants 3, 7, 10 and 15 days after application. Efficacy (% control) of the single compounds or compound combinations was calculated by comparing the disease rating in the treatment with the one of the untreated control. The compounds were also assessed for their plant compatibility by recording symptoms like necrosis, chlorosis and stunting. The results have been described for the compound of formula (I-III) in Table K.

Setting [1] is: Spodoptera litura, read-out: Observed Efficacy (%).
Where [2] appears, read: Helicoverpa armigera, 100 ppm, read-out: Observed Efficacy (%).
The mark [3] stands for this setting: Spodoptera litura, 100 ppm, read-out: Observed Efficacy (%).

Turning to `CON=CNC(=O)c1ccc(C2=NOC(c3cc(Cl)cc(Cl)c3)(C(F)(F)F)C2)cc1C` (stereo not drawn) [Fluxametamid], the “Observed Efficacy (%)” value in the test with Plutella xylostella (0.05 ppm) and in the test on Plutella xylostella (0.1 ppm) was 0% throughout.
`CN(C(=O)c1ccccc1)c1cccc(C(=O)Nc2c(Br)cc(C(F)(C(F)(F)F)C(F)(F)F)cc2C(F)(F)F)c1F` [Broflanilide]: the “Observed Efficacy (%)” value came out at 0% in the test on Helicoverpa armigera (0.05 ppm), 12.5% with Helicoverpa armigera (0.1 ppm) and 0% with Spodoptera litura (0.05 ppm).
`COCC(=O)N(c1c(C)cccc1C)C(C)C(=O)OC` (stereo not drawn) [Metalaxyl]: the pest or weed control at 200 ppm in the test on Spodoptera litura (setting [1]) stood at 0%. The pest or weed control at 500 ppm in the test on Spodoptera litura (setting [1]) was 0%. Moreover, the “Observed Efficacy (%)” value turned out to be 22% in the test on Alternaria solani (50 ppm), 22% in the test with Alternaria solani (100 ppm) and 31% in the test with Erysiphe cichoracearum.
For the compound `CC1=NNC(=O)N(/N=C/c2cccnc2)C1` [Pymetrozine], the “Observed Efficacy (%)” value came to 0% in the test on Plutella xylostella (0.01 ppm), 0% with Plutella xylostella (0.05 ppm) and 12.5% in the test with Plutella xylostella (1 ppm).
In the case of `COC(=O)N(C(=O)N1CO[C@@]2(C(=O)OC)Cc3cc(Cl)ccc3C2=N1)c1ccc(OC(F)(F)F)cc1` [Indoxacarb], the “Observed Efficacy (%)” value in the test with Helicoverpa armigera (0.1 ppm) and with Spodoptera litura (0.1 ppm) was 0% throughout.
Regarding `COC(=O)NC(=S)Nc1ccccc1NC(=S)NC(=O)OC` [Thiophanate-methyl], the pest or weed control at 100 ppm with Helicoverpa armigera (setting [2]) and in the test on Spodoptera litura (setting [3]) was 0% each time. Besides, the pest or weed control at 200 ppm in the test on Helicoverpa armigera (Helicoverpa armigera, 200 ppm, read-out: Observed Efficacy (%)) turned out to be 0%; with Spodoptera litura (setting [1]), 0%. Further, the pest or weed control at 500 ppm in the test on Helicoverpa armigera (Helicoverpa armigera, 500 ppm, read-out: Observed Efficacy (%)) turned out to be 0%; with Spodoptera litura (setting [1]), 0%. For the same compound, the “Observed Efficacy (%)” value in the test with Alternaria solani (10 ppm) and in the test with Alternaria solani (50 ppm) was 36% each time.
On to Emamectin benzoate, for which the “Observed Efficacy (%)” value is 12.5% with Helicoverpa armigera (0.1 ppm), 12.5% with Spodoptera litura (0.05 ppm) and 25% in the test with Spodoptera litura (0.1 ppm).
`CCN(C(=O)c1cnn(C(C)C(C)C)c1C)c1ccnnc1` (stereo not drawn) [Dimpropyridaz]: the “Observed Efficacy (%)” value is recorded as 0% in the test with Spodoptera litura (100 ppm) and 12.5% in the test with Plutella xylostella (0.1 ppm).
In the same order, the values of `CCN(C(=O)CCSCCC(F)(F)F)c1cn(-c2cccnc2)nc1Cl` [Tyclopyrazoflor] are 0% and 0%.
Take `C[C@]1(COC(=O)C2CC2)[C@@H]2C[C@H](O)[C@@]3(C)Oc4cc(-c5cccnc5)oc(=O)c4[C@H](O)[C@@H]3[C@@]2(C)CC[C@@H]1OC(=O)C1CC1` [Afidopyropen]: the “Observed Efficacy (%)” value in the test on Spodoptera litura (50 ppm), in the test with Spodoptera litura (100 ppm) and with Plutella xylostella (0.1 ppm) was 0% in each case.
As for `CCc1nc2cc(C)c(Oc3ccc(OC(F)(F)F)cc3)cc2c(OC(=O)OC)c1C` [Flometoquin], the “Observed Efficacy (%)” value in the test on Plutella xylostella (0.005 ppm) is 12.5%.
As to `CCS(=O)(=O)c1cccnc1-c1nc2cc(S(=O)(=O)C(F)(F)F)ccc2o1` [Oxazosulfyl, 2-[3-(ethanesulfonyl)pyridin-2-yl]-5-[trifluoro(methanesulfonyl)]-1,3-benzoxazole], the pest or weed control at 100 ppm with Helicoverpa armigera (setting [2]) worked out at 12.5%. The “Observed Efficacy (%)” value in the test with Plutella xylostella (0.1 ppm) was determined as 0%.
Turning to `Cc1c(COC(=O)[C@@H]2[C@H](/C=C(\Cl)C(F)(F)F)C2(C)C)cccc1-c1ccccc1` (racemic) [Bifenthrin], the pest or weed control at 1 ppm in the test on Helicoverpa armigera (Helicoverpa armigera, 1 ppm, read-out: Observed Efficacy (%)) stood at 0%. For the same compound, the “Observed Efficacy (%)” value in the test on Plutella xylostella (0.5 ppm) was determined as 12.5%; in the test on Plutella xylostella (1 ppm), 25%.
Turning to `N#Cc1ccc(CC(=NNC(=O)Nc2ccc(OC(F)(F)F)cc2)c2cccc(C(F)(F)F)c2)cc1` (mixture of isomers) [Metaflumizone], the “Observed Efficacy (%)” value in the test with Plutella xylostella (0.01 ppm) is 25%; in the test with Plutella xylostella (0.1 ppm), 0%.
With `CN/C(=N\[N+](=O)[O-])NCc1cnc(Cl)s1` [Clothianidin], in the test with Helicoverpa armigera (Helicoverpa armigera, 10 ppm, read-out: Observed Efficacy (%)), the pest or weed control at 10 ppm worked out at 12.5%. The pest or weed control at 20 ppm in the test with Helicoverpa armigera (Helicoverpa armigera, 20 ppm, read-out: Observed Efficacy (%)) is 25%; in the test with Spodoptera litura (Spodoptera litura, 20 ppm, read-out: Observed Efficacy (%)), 0%.
Consider Spinetoram, for which the “Observed Efficacy (%)” value was found to be 25% with Helicoverpa armigera (0.5 ppm) and 62.5% in the test on Plutella xylostella (0.05 ppm).
Regarding `N#Cc1nn(-c2c(Cl)cc(C(F)(F)F)cc2Cl)c(N)c1[S+]([O-])C(F)(F)F` (stereo not drawn) [Fipronil], the “Observed Efficacy (%)” value in the test with Plutella xylostella (0.001 ppm) amounted to 0%.
Turning to `CCN1OCC(NC(=O)c2ccc(C3=NOC(c4cc(Cl)c(F)c(Cl)c4)(C(F)(F)F)C3)cc2C)C1=O` (stereo not drawn) [Isocycloseram], the “Observed Efficacy (%)” value with Spodoptera litura (10 ppm) came to 12.5%; in the test with Plutella xylostella (0.1 ppm), 87.5%.
For the compound `CC(COc1ccc(Oc2ccccc2)cc1)Oc1ccccn1` (stereo not drawn) [Pyriproxyfen], the “Observed Efficacy (%)” value in the test with Plutella xylostella (0.05 ppm) is listed as 12.5%; in the test with Plutella xylostella (0.1 ppm), 25%; with Plutella xylostella (1 ppm), 12.5%.
Regarding `O=[N+]([O-])NC1=NCCN1Cc1ccc(Cl)nc1` [Imidacloprid], the pest or weed control at 50 ppm in the test on Helicoverpa armigera (Helicoverpa armigera, 50 ppm, read-out: Observed Efficacy (%)) is 0%. The pest or weed control at 100 ppm in the test with Spodoptera litura (setting [3]) was found to be 0%. Also, in the test on Plutella xylostella (0.1 ppm), the “Observed Efficacy (%)” value was 0%.
For the compound `CN1COCN(Cc2cnc(Cl)s2)/C1=N\[N+](=O)[O-]` [Thiamethoxam], the pest or weed control at 100 ppm in the test with Helicoverpa armigera (setting [2]) was found to be 25%; with Spodoptera litura (setting [3]), 0%. The pest or weed control at 50 ppm in the test with Spodoptera litura (Spodoptera litura, 50 ppm, read-out: Observed Efficacy (%)) is 0%. For the same compound, the “Observed Efficacy (%)” value in the test with Plutella xylostella (1 ppm) came to 12.5%.
On to `O=c1c(-c2cccc(C(F)(F)F)c2)c([O-])[n+](Cc2cncnc2)c2ccccn12` [Triflumezopyrim], for which the “Observed Efficacy (%)” value in the test with Helicoverpa armigera (50 ppm) amounted to 12.5%; in the test on Helicoverpa armigera (100 ppm), 0%; in the test on Spodoptera litura (50 ppm), 25%.
In the case of Spinosad, the entries for the “Observed Efficacy (%)” value in the test with Helicoverpa armigera (0.2 ppm) and with Spodoptera litura (0.2 ppm) were 12.5% and 0%, respectively.
Consider Abamectin, for which the “Observed Efficacy (%)” value is reported as 12.5% with Plutella xylostella (0.001 ppm) and 25% in the test on Plutella xylostella (0.005 ppm).
